The experiment concerns the target T1, human apelin receptor (Homo sapiens, UniProt P35414).
T1 construct: expressed in transfected cells
T1 sequence (P35414 1-380): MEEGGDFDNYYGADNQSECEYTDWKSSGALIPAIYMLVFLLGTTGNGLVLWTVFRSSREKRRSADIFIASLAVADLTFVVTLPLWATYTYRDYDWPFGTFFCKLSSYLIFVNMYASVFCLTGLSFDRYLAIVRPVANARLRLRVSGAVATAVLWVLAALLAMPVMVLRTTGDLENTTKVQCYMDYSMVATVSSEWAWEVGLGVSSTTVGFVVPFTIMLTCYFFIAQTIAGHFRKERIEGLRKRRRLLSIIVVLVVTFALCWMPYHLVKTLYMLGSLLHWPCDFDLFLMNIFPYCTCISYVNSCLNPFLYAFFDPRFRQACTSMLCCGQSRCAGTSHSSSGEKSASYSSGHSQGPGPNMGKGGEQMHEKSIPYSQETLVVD
The experiment is described as follows: Determination of agonism on the human apelin receptor by a calcium fluorescence assay (FLIPR). The format is cell-based. The settings on record: HEK293 cells stably transfected with human apelin receptor and Giaq protein, Fluo-4 calcium fluorescence, read-out: EC50 (APJ agonism). In short, it runs like this: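 Agonist EC50s come from peak intracellular calcium transients recorded by FLIPR Tetra, scaled to the 1 μM apelin-13 maximum per plate. Test system: HEK293 stably transfected with human apelin receptor plus Giaq, Fluo-4-loaded (4 μM, 1 h, 37 °C, pH 7.4 buffer with probenecid); ≥7 concentrations, triplicates.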

The results in this text go back to patent publication US9156796B2, “Benzoimidazole-carboxylic acid amide derivatives as APJ receptor modulators” (SANOFI, priority 2013, dated 2015).

A word on the EC50: it is the concentration needed to bring the measured effect to its halfway point.

For `CCC(CC)n1c(Cc2cccs2)nc2cc(C(=O)N[C@@H](CC(C)C)C(=O)NCc3cccs3)ccc21` [Example 222, 1-(1-Ethyl-propyl)-2-thiophen-2-ylmethyl-1H-benzoimidazole-5-carboxylic acid {(S)-3-methyl-1-[(thiophen-2-ylmethyl)-carbamoyl]-butyl}-amide], the EC50 was 3.99 µM.

For the molecule `CCC(CC)n1c(Cc2cccs2)nc2cc(C(=O)N[C@@H](CC3CC3)C(=O)O)ccc21` [Example 21, (S)-3-Cyclopropyl-2-{[1-(1-ethyl-propyl)-2-thiophen-2-ylmethyl-1H-benzoimidazole-5-carbonyl]-amino}-propionic acid], the concentration giving a half-maximal response (EC50) worked out at 0.443 µM.

Consider `CCC(CC)n1c(Cc2cccs2)nc2cc(C(=O)N[C@@H](CC(C)C)C(=O)NCCc3n[nH]c(=O)[nH]3)ccc21` [Example 406, 1-(1-Ethyl-propyl)-2-thiophen-2-ylmethyl-1H-benzoimidazole-5-carboxylic acid {(S)-3-methyl-1-[2-(5-oxo-4,5-dihydro-1H-[1,2,4]triazol-3-yl)-ethylcarbamoyl]-butyl}-amide], for which the EC50 amounted to 1.11 µM.

As for `CCC(CC)n1c(Cc2cccs2)nc2cc(C(=O)N[C@@H](CC(C)C)[C@H](O)C(=O)O)ccc21` [Example 68, (2S,3S)-3-{[1-(1-Ethyl-propyl)-2-thiophen-2-ylmethyl-1H-benzoimidazole-5-carbonyl]-amino}-2-hydroxy-5-methyl-hexanoic acid], the EC50 was determined as 0.018 µM.

For `CCC(CC)n1c(Cc2cccs2)nc2cc(C(=O)NC(C(N)=O)c3ccccc3)ccc21` (stereo not drawn) [Example 170, 1-(1-Ethyl-propyl)-2-thiophen-2-ylmethyl-1H-benzoimidazole-5-carboxylic acid (carbamoyl-phenyl-methyl)-amide], the EC50 was 10.1 µM.

As to `CCC(CC)n1c(Cc2cccs2)nc2cc(C(=O)N[C@@H](CC(C)C)C(=O)NC[C@@H]3CCCO3)ccc21` [Example 368, 1-(1-Ethyl-propyl)-2-thiophen-2-ylmethyl-1H-benzoimidazole-5-carboxylic acid ((S)-3-methyl-1-{[(S)-1-(tetrahydro-furan-2-yl)methyl]-carbamoyl}-butyl)-amide], the EC50 was 1.88 µM.

Take `CCC(C)n1c(Cc2cccs2)nc2cc(C(=O)N[C@@H](CC3CCCCC3)C(=O)O)ccc21` (stereo partly drawn) [Example 140, (S)-2-[(1-sec-Butyl-2-thiophen-2-ylmethyl-1H-benzoimidazole-5-carbonyl)-amino]-3-cyclohexyl-propionic acid]: the EC50 was found to be 3.8 µM.

Take `CC(C)C[C@@H](CC(=O)O)NC(=O)c1ccc2c(c1)nc(Cc1ccco1)n2C1CCCCC1C` (single isomer, unassigned) [Example 435]: the EC50 amounted to 0.226 µM.

In the case of `CC(C)C[C@@H](CC(=O)O)NC(=O)c1ccc2c(c1)nc(Cc1cccs1)n2C1CCCCC1C` (single isomer, unassigned) [Example 438], the EC50 was determined as 0.661 µM.

Take `CCCCC(CC(=O)O)NC(=O)c1ccc2c(c1)nc(Cc1cccs1)n2C(CC)CC` (stereo not drawn) [Example 45, 3-{[1-(1-Ethyl-propyl)-2-thiophen-2-ylmethyl-1H-benzoimidazole-5-carbonyl]-amino}-heptanoic acid]: the EC50 turned out to be 0.552 µM.

Consider `CCC(CC)n1c(Cc2cccs2)nc2cc(C(=O)N[C@@H](CC(C)C)C(=O)N3CC4CC3CN4Cc3ccc(OC)cc3)ccc21` (stereo partly drawn) [Example 351, 1-(1-Ethyl-propyl)-2-thiophen-2-ylmethyl-1H-benzoimidazole-5-carboxylic acid {(S)-1-[5-(4-methoxy-benzyl)-2,5-diaza-bicyclo[2.2.1]heptane-2-carbonyl]-3-methyl-butyl}-amide], for which the EC50 was 9.29 µM.

For `CC(C)C[C@H](NC(=O)c1ccc2c(c1)nc(CC1CCCC1)n2C1CCCCC1)C(=O)O` [Example 112, (S)-2-[(1-Cyclohexyl-2-cyclopentylmethyl-1H-benzoimidazole-5-carbonyl)-amino]-4-methyl-pentanoic acid], the EC50 was 12.8 µM.

As for `CCC(CC)n1c(Cc2cccs2)nc2cc(C(=O)N[C@@H](CC(C)C)C(=O)NCCC3CCCCN3Cc3ccccc3)ccc21` (stereo partly drawn) [Example 307, 1-(1-Ethyl-propyl)-2-thiophen-2-ylmethyl-1H-benzoimidazole-5-carboxylic acid {(S)-1-[2-(1-benzyl-piperidin-2-yl)-ethylcarbamoyl]-3-methyl-butyl}-amide], the EC50 stood at 1.83 µM.

Take `C[C@@H]1CCCC[C@H]1n1c(Cc2cncs2)nc2cc(C(=O)NC(CC(=O)O)CC3CCCCC3)ccc21` (stereo partly drawn) [Example 65, 4-Cyclohexyl-3-{[1-((1R,2R)-2-methyl-cyclohexyl)-2-thiazol-5-ylmethyl-1H-benzoimidazole-5-carbonyl]-amino}-butyric acid]: the EC50 stood at 0.056 µM.

`CCC(CC)n1c(Cc2cccs2)nc2cc(C(=O)N[C@@H](CCSC)C(=O)O)ccc21` [Example 123, (S)-2-{[1-(1-Ethyl-propyl)-2-thiophen-2-ylmethyl-1H-benzoimidazole-5-carbonyl]-amino}-4-methylsulfanyl-butyric acid]: the EC50 stood at 1.88 µM.

Turning to `CCCC[C@H](NC(=O)c1ccc2c(c1)nc(Cc1cccs1)n2C1CCCCC1C)C(=O)O` (stereo partly drawn) [Example 16, (S)-2-{[1-(2-Methyl-cyclohexyl)-2-thiophen-2-ylmethyl-1H-benzoimidazole-5-carbonyl]-amino}-hexanoic acid], the EC50 was determined as 0.117 µM.

Consider `CCC(CC)n1c(Cc2cccs2)nc2cc(C(=O)N[C@@H](CC(C)C)C(=O)NCC3CN(Cc4ccc(F)cc4)CCO3)ccc21` (stereo partly drawn) [Example 356, 1-(1-Ethyl-propyl)-2-thiophen-2-ylmethyl-1H-benzoimidazole-5-carboxylic acid ((S)-1-{[4-(4-fluoro-benzyl)-morpholin-2-ylmethyl]-carbamoyl}-3-methyl-butyl)-amide], for which the EC50 is 4.26 µM.

With `CCC(CC)n1c(Cc2cccs2)nc2cc(C(=O)N[C@H](CO)[C@@H](C)CC)ccc21` [Example 194, 1-(1-Ethyl-propyl)-2-thiophen-2-ylmethyl-1H-benzoimidazole-5-carboxylic acid ((1S,2S)-1-hydroxymethyl-2-methyl-butyl)-amide], the EC50 amounted to 0.96 µM.

Consider `CCC(CC)n1c(Cc2cccs2)nc2cc(C(=O)N[C@@H](CC(C)C)C(=O)NCCNS(C)(=O)=O)ccc21` [Example 402, 1-(1-Ethyl-propyl)-2-thiophen-2-ylmethyl-1H-benzoimidazole-5-carboxylic acid [(S)-1-(2-methanesulfonylamino-ethylcarbamoyl)-3-methyl-butyl]-amide], for which the 50% effective concentration (EC50) turned out to be 0.777 µM.

`CCC(CC)n1c(Cc2ccno2)nc2cc(C(=O)N[C@H](CC(=O)O)CC(C)C)ccc21` [Example 105, (S)-3-{[1-(1-Ethyl-propyl)-2-isoxazol-5-ylmethyl-1H-benzoimidazole-5-carbonyl]-amino}-5-methyl-hexanoic acid]: the EC50 came out at 5.47 µM.

`CCC(CC)n1c(Cc2cccs2)nc2cc(C(=O)N[C@@H](CC(C)C)C(=O)N(C)CC3CCCCO3)ccc21` (stereo partly drawn) [Example 395, 1-(1-Ethyl-propyl)-2-thiophen-2-ylmethyl-1H-benzoimidazole-5-carboxylic acid {(S)-3-methyl-1-[methyl-(tetrahydro-pyran-2-ylmethyl)-carbamoyl]-butyl}-amide]: the EC50 stood at 1.76 µM.

`CCC(CC)n1c(Cc2cscn2)nc2cc(C(=O)N[C@@H](CC(C)C)C(=O)O)ccc21` [Example 84, (S)-2-{[1-(1-Ethyl-propyl)-2-thiazol-4-ylmethyl-1H-benzoimidazole-5-carbonyl]-amino}-4-methyl-pentanoic acid]: the EC50 is 2.95 µM.

With `CCC(CC)n1c(Cc2cccs2)nc2cc(C(=O)NC(CC3CCC(C)(C)CC3)C(=O)O)ccc21` (stereo not drawn) [Example 29, 3-(4,4-Dimethyl-cyclohexyl)-2-{[1-(1-ethyl-propyl)-2-thiophen-2-ylmethyl-1H-benzoimidazole-5-carbonyl]-amino}-propionic acid], the EC50 amounted to 5.66 µM.

`Cc1ccc(Cc2nc3cc(C(=O)N[C@@H](CC(C)C)C(=O)O)ccc3n2C2CCCCC2C)s1` (stereo partly drawn) [Example 144, (S)-4-Methyl-2-{[1-(2-methyl-cyclohexyl)-2-(5-methyl-thiophen-2-ylmethyl)-1H-benzoimidazole-5-carbonyl]-amino}-pentanoic acid]: the EC50 turned out to be 23 µM.

With `CCC(CC)n1c(Cc2cccs2)nc2cc(C(=O)N[C@@H](CC(C)C)C(=O)NCCN3CCCCC3)ccc21` [Example 233, 1-(1-Ethyl-propyl)-2-thiophen-2-ylmethyl-1H-benzoimidazole-5-carboxylic acid [(S)-3-methyl-1-(2-piperidin-1-yl-ethylcarbamoyl)-butyl]-amide], the EC50 came out at 0.394 µM.

On to `CCC(CC)n1c(Cc2cccs2)nc2cc(C(=O)N[C@@H](CC(C)C)C(=O)NCC3CCN(Cc4ccccc4)C3)ccc21` (stereo partly drawn) [Example 290, 1-(1-Ethyl-propyl)-2-thiophen-2-ylmethyl-1H-benzoimidazole-5-carboxylic acid {(S)-1-[(1-benzyl-pyrrolidin-3-ylmethyl)-carbamoyl]-3-methyl-butyl}-amide], for which the EC50 was 0.506 µM.

On to `CCC(CC)n1c(Cc2cccs2)nc2cc(C(=O)N[C@@H](CC(C)C)C(=O)NCCc3ccccc3OC)ccc21` [Example 362, 1-(1-Ethyl-propyl)-2-thiophen-2-ylmethyl-1H-benzoimidazole-5-carboxylic acid {(S)-1-[2-(2-methoxy-phenyl)-ethylcarbamoyl]-3-methyl-butyl}-amide], for which the EC50 was 27.1 µM.
